Among the data in patent US20120136003A1, “COMPOUNDS, COMPOSITIONS AND METHODS COMPRISING 1,3,4-OXADIAZOLE DERIVATIVES” (Institute For Oneworld Health, priority 2009, published 2012) are IC50 values, retold here.

The assay has as its target CFTR (Homo sapiens, UniProt P13569). Put plainly: T84 assay (FLIPR membrane potential). The format is cell-based. Also on record: Human colonic T84 cells are acquired from the European Collection of Cell Cultures (ECACC); host or cells: T84 human colonic cells. Here is the method: (§1) For example, Human colonic T84 cells can be acquired from the European Collection of Cell Cultures (ECACC) and grown in standard culture conditions as described by the supplier. On the day before assay 25,000 T84 cells per well are plated into standard black walled, clear bottom 384-well assay plates in standard growth medium consisting of DMEM:F12 with 10% FBS and incubated overnight. On the day of the assay the plates are washed using a standard assay buffer (HBSS with 10 mM Hepes) and incubated for 15 minutes in serum free cell culture medium before the addition of a commercially available membrane potential sensitive fluorescent dye (FLIPR Red membrane potential dye, Molecular Devices Corporation). T84 cells are incubated with the FLIPR Red membrane potential dye for 45 minutes in the presence and absence of test compound before being transferred to a commercially available fluorescence imaging plate reader (FLIPR384, Molecular Devices Corporation). Fluorescence levels are monitored continuously every second for 150 seconds; after an initial 10 second baseline, CFTR channel activity is stimulated through the addition of 10 μM forskolin in the presence of 100 μM of the phosphodiesterase inhibitor iso-butyl-methylxanthine (IBMX). Addition of the forskolin leads to the activation of intracellular adenylyl cylase 1, elevating cAMP levels and results in the phosphorylation and opening of CFTR anion channels. CFTR channel opening causes chloride ion efflux and subsequent depolarization of the cells, which is measured by an increase in fluorescence. CFTR inhibitor compounds prevent cell depolarization and the associated increase in fluorescence.
as §1, with “Human colonic” for “For example, Human colonic”, “T84 cells are acquired from” for “T84 cells can be acquired from”, “(ECACC) and are grown in” for “(ECACC) and grown in”, “with 10 Mm Hepes) and” for “with 10 mM Hepes) and”, “1, elevating Camp levels and” for “1, elevating cAMP levels and”

Chain of CFTR (P13569 whole entry): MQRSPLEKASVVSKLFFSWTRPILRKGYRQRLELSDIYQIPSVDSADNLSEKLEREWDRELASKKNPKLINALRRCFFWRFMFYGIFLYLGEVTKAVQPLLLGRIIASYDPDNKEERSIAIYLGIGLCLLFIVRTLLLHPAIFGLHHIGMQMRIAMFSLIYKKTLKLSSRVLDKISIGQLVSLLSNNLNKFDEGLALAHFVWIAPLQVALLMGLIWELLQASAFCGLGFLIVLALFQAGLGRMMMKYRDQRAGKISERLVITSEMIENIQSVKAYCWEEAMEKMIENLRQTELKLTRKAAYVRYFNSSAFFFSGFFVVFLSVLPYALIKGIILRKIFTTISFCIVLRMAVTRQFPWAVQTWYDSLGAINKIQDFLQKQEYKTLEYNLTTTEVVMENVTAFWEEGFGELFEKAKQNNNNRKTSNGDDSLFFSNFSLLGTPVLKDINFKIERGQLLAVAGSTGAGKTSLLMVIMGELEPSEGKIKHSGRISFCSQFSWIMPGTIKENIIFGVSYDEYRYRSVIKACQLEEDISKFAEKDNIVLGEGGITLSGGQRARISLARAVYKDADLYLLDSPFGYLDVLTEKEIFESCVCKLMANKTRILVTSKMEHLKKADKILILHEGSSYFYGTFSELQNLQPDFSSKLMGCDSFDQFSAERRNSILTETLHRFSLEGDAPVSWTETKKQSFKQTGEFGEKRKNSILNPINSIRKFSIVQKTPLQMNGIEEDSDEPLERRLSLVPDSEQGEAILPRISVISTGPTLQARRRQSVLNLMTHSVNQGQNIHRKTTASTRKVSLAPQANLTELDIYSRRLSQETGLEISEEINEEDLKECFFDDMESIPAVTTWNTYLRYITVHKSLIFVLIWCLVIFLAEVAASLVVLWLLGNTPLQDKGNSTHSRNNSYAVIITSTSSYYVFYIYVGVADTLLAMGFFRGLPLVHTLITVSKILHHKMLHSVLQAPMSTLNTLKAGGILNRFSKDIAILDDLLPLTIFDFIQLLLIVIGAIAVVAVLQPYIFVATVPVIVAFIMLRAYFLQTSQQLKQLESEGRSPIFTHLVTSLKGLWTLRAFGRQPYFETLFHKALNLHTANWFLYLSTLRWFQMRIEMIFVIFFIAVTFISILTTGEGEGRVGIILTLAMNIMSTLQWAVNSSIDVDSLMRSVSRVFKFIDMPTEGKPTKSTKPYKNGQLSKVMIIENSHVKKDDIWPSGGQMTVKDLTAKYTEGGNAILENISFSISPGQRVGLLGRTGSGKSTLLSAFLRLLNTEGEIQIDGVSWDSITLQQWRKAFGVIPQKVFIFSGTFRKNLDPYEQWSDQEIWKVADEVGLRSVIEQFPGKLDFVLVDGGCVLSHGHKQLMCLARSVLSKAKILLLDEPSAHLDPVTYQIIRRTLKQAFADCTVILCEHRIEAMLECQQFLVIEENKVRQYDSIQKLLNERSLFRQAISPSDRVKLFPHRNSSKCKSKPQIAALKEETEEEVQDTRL

As for `O=C(NCc1cc(F)cc(C(F)(F)F)c1)c1nnc(-c2cc(Cl)c(O)c(Cl)c2)o1` [Compound 21, 5-(3,5-dichloro-4-hydroxyphenyl)-N-(3-fluoro-5-(trifluoromethyl)benzyl)-1,3,4-oxadiazole-2-carboxamide], the concentration for half-maximal inhibition (IC50) (as a rule, the concentration needed to halve the response being measured) came to 13.6 µM.

As for `CN(Cc1cccc(Oc2ccccc2)c1)C(=O)c1nnc(-c2cc(Cl)c(O)c(Cl)c2)o1` [Compound 13, 5-(3,5-dichloro-4-hydroxyphenyl)-N-methyl-N-(3-phenoxybenzyl)-1,3,4-oxadiazole-2-carboxamide], the half-inhibitory concentration (IC50) is 3.26 µM.

Consider `O=C(NCc1ccc(F)c(C(F)(F)F)c1)c1nnc(-c2cc(Cl)c(O)c(Cl)c2)o1` [Compound 24, 5-(3,5-dichloro-4-hydroxyphenyl)-N-(4-fluoro-3-(trifluoromethyl)benzyl)-1,3,4-oxadiazole-2-carboxamide], for which the IC50 amounted to 19.7 µM.

`O=C(NCc1cccc(Oc2ccccc2)c1)c1nnc(-c2cc(Cl)c(O)c(Cl)c2)o1` [Compound 14, 5-(3,5-dichloro-4-hydroxyphenyl)-N-(3-phenoxybenzyl)-1,3,4-oxadiazole-2-carboxamide] showed a half-maximal inhibitory concentration (IC50) of 5.37 µM.

The compound `CC(C)(C)c1ccc(CNC(=O)c2nnc(-c3cccc(NS(=O)(=O)C(F)(F)F)c3)o2)cc1` [Compound 9, N-(4-tert-butylbenzyl)-5-(3-(trifluoromethylsulfonamido)phenyl)-1,3,4-oxadiazole-2-carboxamide] registered a half-inhibitory concentration (IC50) of 19 µM.

The compound `O=C(NCc1ccc(Oc2ccccc2)cc1)c1nnc(-c2cccc(NS(=O)(=O)C(F)(F)F)c2)o1` [Compound 7, N-(4-phenoxybenzyl)-5-(3-(trifluoromethylsulfonamido)phenyl)-1,3,4-oxadiazole-2-carboxamide] yielded an IC50 of 15.8 µM.

In the case of `CC(C)(C)c1ccc(CNC(=O)c2nnc(-c3ccc(NS(=O)(=O)C(F)(F)F)cc3)o2)cc1` [Compound 20, N-(4-tert-butylbenzyl)-5-(4-(trifluoromethylsulfonamido)phenyl)-1,3,4-oxadiazole-2-carboxamide], the IC50 is 12.7 µM.

For `CC(C)(C)c1ccc(CNC(=O)c2nnc(-c3cc(Cl)c(O)c(Cl)c3)o2)cc1` [Compound 5, N-(4-tert-butylbenzyl)-5-(3,5-dichloro-4-hydroxyphenyl)-1,3,4-oxadiazole-2-carboxamide], inhibition was half-maximal at 7.38 µM (IC50). Compared with the last compound, the IC50 is about 1.7-fold lower.

For the compound `O=C(NCc1ccc(OCc2ccccc2)cc1)c1nnc(-c2cc(Cl)c(O)c(Cl)c2)o1` [Compound 18, N-(4-(benzyloxy)benzyl)-5-(3,5-dichloro-4-hydroxyphenyl)-1,3,4-oxadiazole-2-carboxamide], the 50% inhibitory concentration (IC50) turned out to be 9.86 µM. This IC50 and that of the compound before are within 1.5-fold of each other.

Regarding `O=C(c1nnc(-c2ccc(NS(=O)(=O)C(F)(F)F)cc2)o1)N1CCN(c2cccc(C(F)(F)F)c2)CC1` [Compound 25, 1,1,1-trifluoro-N-(4-(5-(4-(3-(trifluoromethyl)phenyl)piperazine-1-carbonyl)-1,3,4-oxadiazol-2-yl)phenyl)methanesulfonamide], half-maximal inhibition (IC50) required 20.6 µM.

Regarding `O=C(NC(c1ccccc1)c1ccccc1)c1nnc(-c2cc(Cl)c(O)c(Cl)c2)o1` [Compound 6, N-benzhydryl-5-(3,5-dichloro-4-hydroxyphenyl)-1,3,4-oxadiazole-2-carboxamide], the midpoint of inhibition, the IC50, lay at 14.6 µM.

`O=C(NCc1cccc(OCc2ccccc2)c1)c1nnc(-c2cc(Cl)c(O)c(Cl)c2)o1` [Compound 16, N-(3-(benzyloxy)benzyl)-5-(3,5-dichloro-4-hydroxyphenyl)-1,3,4-oxadiazole-2-carboxamide] had an IC50 of 7.53 µM.

In turn, `O=C(NCc1cccc(-c2ccccc2)c1)c1nnc(-c2cc(Cl)c(O)c(Cl)c2)o1` [Compound 19, N-(biphenyl-3-ylmethyl)-5-(3,5-dichloro-4-hydroxyphenyl)-1,3,4-oxadiazole-2-carboxamide] had an IC50 of 9.89 µM.

Take `O=C(NCc1ccc(Oc2ccccc2)cc1)c1nnc(-c2cc(Cl)c(O)c(Cl)c2)o1` [Compound 2, 5-(3,5-Dichloro-4-hydroxyphenyl)-N-(4-phenoxybenzyl)-1,3,4-oxadiazole-2-carboxamide]: the half-inhibitory concentration (IC50) turned out to be 3.95 µM.

In the case of `CN(Cc1ccc(Cl)c(Cl)c1)C(=O)c1nnc(-c2cccc(NS(=O)(=O)C(F)(F)F)c2)o1` [Compound 10, N-(3,4-dichlorobenzyl)-N-methyl-5-(3-(trifluoromethylsulfonamido)phenyl)-1,3,4-oxadiazole-2-carboxamide], the half-inhibitory concentration (IC50) amounted to 11.8 µM.

Take `O=C(c1nnc(-c2cccc(NS(=O)(=O)C(F)(F)F)c2)o1)N1CCN(c2cccc(C(F)(F)F)c2)CC1` [Compound 11, 1,1,1-trifluoro-N-(3-(5-(4-(3-(trifluoromethyl)phenyl)piperazine-1-carbonyl)-1,3,4-oxadiazol-2-yl)phenyl)methanesulfonamide]: the midpoint of inhibition, the IC50, lay at 13.4 µM.

Regarding `CN(Cc1ccc(Cl)c(Cl)c1)C(=O)c1nnc(-c2ccc(NS(=O)(=O)C(F)(F)F)cc2)o1` [Compound 17, N-(3,4-dichlorobenzyl)-N-methyl-5-(4-(trifluoromethylsulfonamido)phenyl)-1,3,4-oxadiazole-2-carboxamide], it took 9.62 µM to reach half-maximal inhibition (IC50).

For `O=C(NCc1cccc(OC(F)(F)F)c1)c1nnc(-c2cc(Cl)c(O)c(Cl)c2)o1` [Compound 1, 5-(3,5-dichloro-4-hydroxyphenyl)-N-(3-(trifluoromethoxy)benzyl)-1,3,4-oxadiazole-2-carboxamide], the half-maximal inhibitory concentration (IC50) came out at 17.4 µM.

As for `O=C(c1nnc(-c2cc(Cl)c(O)c(Cl)c2)o1)N1CCC(Cc2ccccc2)CC1` [Compound 3, (4-benzylpiperidin-1-yl)(5-(3,5-dichloro-4-hydroxyphenyl)-1,3,4-oxadiazol-2-yl)methanone], half-maximal inhibition (IC50) was put at 9.5 µM.

For `O=C(c1nnc(-c2cccc(NS(=O)(=O)C(F)(F)F)c2)o1)N1CCC(Cc2ccccc2)CC1` [Compound 8, N-(3-(5-(4-benzylpiperidine-1-carbonyl)-1,3,4-oxadiazol-2-yl)phenyl)-1,1,1-trifluoromethanesulfonamide], the IC50 was 13.3 µM.

As to `O=C(NCc1ccc(OC(F)(F)F)cc1)c1nnc(-c2cc(Cl)c(O)c(Cl)c2)o1` [Compound 22, 5-(3,5-dichloro-4-hydroxyphenyl)-N-(4-(trifluoromethoxy)benzyl)-1,3,4-oxadiazole-2-carboxamide], the concentration for half-maximal inhibition (IC50) worked out at 14.3 µM.

In turn, `CC(NC(=O)c1nnc(-c2cc(Cl)c(O)c(Cl)c2)o1)c1ccc(Cl)cc1` (stereo not shown) [Compound 26, N-(1-(4-chlorophenyl)ethyl)-5-(3,5-dichloro-4-hydroxyphenyl)-1,3,4-oxadiazole-2-carboxamide] had a concentration for half-maximal inhibition (IC50) of 27.8 µM.

Compound `O=C(NCC(c1ccccc1)c1ccccc1)c1nnc(-c2cc(Cl)c(O)c(Cl)c2)o1` [Compound 15, 5-(3,5-dichloro-4-hydroxyphenyl)-N-(2,2-diphenylethyl)-1,3,4-oxadiazole-2-carboxamide] had an IC50 of 5.77 µM.

As for `CN(Cc1ccc(Cl)c(Cl)c1)C(=O)c1nnc(-c2cc(Cl)c(O)c(Cl)c2)o1` [Compound 12, 5-(3,5-dichloro-4-hydroxyphenyl)-N-(3,4-dichlorobenzyl)-N-methyl-1,3,4-oxadiazole-2-carboxamide], 1.88 µM corresponded to half-maximal inhibition (IC50).

Take `O=C(NCc1ccc(Oc2ccccc2)cc1)c1nnc(-c2ccc(NS(=O)(=O)C(F)(F)F)cc2)o1` [Compound 23, N-(4-phenoxybenzyl)-5-(4-(trifluoromethylsulfonamido)phenyl)-1,3,4-oxadiazole-2-carboxamide]: the half-maximal inhibitory concentration (IC50) was 18.8 µM.
